# Test results taken from ChEMBL document CHEMBL2163339, “Discovery of potent inhibitors of human and mouse fatty acid amide hydrolases” (J Med Chem, 2012).
# The source made the active and inactive calls.
# Test system: Rattus norvegicus
# Assay: Analgesic activity in rat assessed as increase in paw withdrawal threshold at 100 mg/kg, po
# Type: functional, organism-based
# Set-up: dose 100 mg/kg
# Conditions: not given
row,SMILES,Activity
1,C#CCCCCCCCCCNC(=O)Oc1cccc(-n2ccc(C(N)=O)c2)c1,Active
2,NC(=O)c1ccn(-c2cccc(OC(=O)NCCCCCCc3ccccc3)c2)c1,Active

# Test system: Rattus norvegicus
# Assay: Analgesic activity in rat assessed as increase in paw withdrawal threshold at 30 mg/kg, po
# Type: functional, organism-based
# Set-up: dose 30 mg/kg
# Conditions: not given
row,SMILES,Activity
1,C#CCCCCCCCCCNC(=O)Oc1cccc(-n2ccc(C(N)=O)c2)c1,Active
2,NC(=O)c1ccn(-c2cccc(OC(=O)NCCCCCCc3ccccc3)c2)c1,Active

# Test system: Mus musculus
# Assay: Anxiolytic activity in mouse at 30 mg/kg, po measured for 5 mins by elevated plus maze test
# Type: organism-based
# Set-up: dose 30 mg/kg, route oral
# Conditions: in vivo
row,SMILES,Activity
1,C#CCCCCCCCCCNC(=O)Oc1cccc(-n2ccc(C(N)=O)c2)c1,Non-toxic
2,NC(=O)c1ccn(-c2cccc(OC(=O)NCCCCCCc3ccccc3)c2)c1,Non-toxic

# Test system: Rattus norvegicus
# Assay: Analgesic activity in rat assessed as increase in paw withdrawal threshold at 10 mg/kg, po
# Type: functional, organism-based
# Set-up: dose 10 mg/kg
# Conditions: not given
row,SMILES,Activity
1,C#CCCCCCCCCCNC(=O)Oc1cccc(-n2ccc(C(N)=O)c2)c1,inactive
2,NC(=O)c1ccn(-c2cccc(OC(=O)NCCCCCCc3ccccc3)c2)c1,inactive

# Test system: Mus musculus
# Assay: Anxiolytic activity in mouse at 10 mg/kg, po measured for 5 mins by elevated plus maze test
# Type: organism-based
# Set-up: dose 10 mg/kg, route oral
# Conditions: in vivo
row,SMILES,Activity
1,C#CCCCCCCCCCNC(=O)Oc1cccc(-n2ccc(C(N)=O)c2)c1,Non-toxic
2,NC(=O)c1ccn(-c2cccc(OC(=O)NCCCCCCc3ccccc3)c2)c1,Non-toxic

# Test system: Mus musculus
# Assay: Toxicity against CD1 mouse assessed as limbic/striatal stereotypies at 100 mg/kg, po at 240 mins by Irwin test
# Type: organism-based
# Set-up: dose 100 mg/kg, route oral
# Conditions: in vivo, 4 h
row,SMILES,Activity
1,C#CCCCCCCCCCNC(=O)Oc1cccc(-n2ccc(C(N)=O)c2)c1,Non-toxic
2,NC(=O)c1ccn(-c2cccc(OC(=O)NCCCCCCc3ccccc3)c2)c1,Toxic

# Test system: Mus musculus
# Assay: Anxiolytic activity in mouse at 3 mg/kg, po measured for 5 mins by elevated plus maze test
# Type: organism-based
# Set-up: dose 3 mg/kg, route oral
# Conditions: in vivo
row,SMILES,Activity
1,C#CCCCCCCCCCNC(=O)Oc1cccc(-n2ccc(C(N)=O)c2)c1,Non-toxic
2,NC(=O)c1ccn(-c2cccc(OC(=O)NCCCCCCc3ccccc3)c2)c1,Non-toxic

# Test system: Mus musculus
# Assay: Toxicity against CD1 mouse assessed as limbic/striatal stereotypies at 30 mg/kg, po at 240 mins by Irwin test
# Type: organism-based
# Set-up: dose 30 mg/kg, route oral
# Conditions: in vivo, 4 h
row,SMILES,Activity
1,C#CCCCCCCCCCNC(=O)Oc1cccc(-n2ccc(C(N)=O)c2)c1,Non-toxic
2,NC(=O)c1ccn(-c2cccc(OC(=O)NCCCCCCc3ccccc3)c2)c1,Toxic

# Test system: Mus musculus
# Assay: Toxicity against CD1 mouse assessed as limbic/striatal stereotypies at 10 mg/kg, po at 240 mins by Irwin test
# Type: organism-based
# Set-up: dose 10 mg/kg, route oral
# Conditions: in vivo, 4 h
row,SMILES,Activity
1,C#CCCCCCCCCCNC(=O)Oc1cccc(-n2ccc(C(N)=O)c2)c1,Non-toxic
2,NC(=O)c1ccn(-c2cccc(OC(=O)NCCCCCCc3ccccc3)c2)c1,Toxic

# Test system: Mus musculus
# Assay: Toxicity against CD1 mouse assessed as limbic/striatal stereotypies at 30 mg/kg, po at 60 mins by Irwin test
# Type: organism-based
# Set-up: dose 30 mg/kg, route oral
# Conditions: in vivo, 1 h
row,SMILES,Activity
1,C#CCCCCCCCCCNC(=O)Oc1cccc(-n2ccc(C(N)=O)c2)c1,Toxic
2,NC(=O)c1ccn(-c2cccc(OC(=O)NCCCCCCc3ccccc3)c2)c1,Toxic

# Test system: Mus musculus
# Assay: Toxicity against CD1 mouse assessed as limbic/striatal stereotypies at 100 mg/kg, po at 60 mins by Irwin test
# Type: organism-based
# Set-up: dose 100 mg/kg, route oral
# Conditions: in vivo, 1 h
row,SMILES,Activity
1,C#CCCCCCCCCCNC(=O)Oc1cccc(-n2ccc(C(N)=O)c2)c1,Toxic
2,NC(=O)c1ccn(-c2cccc(OC(=O)NCCCCCCc3ccccc3)c2)c1,Toxic

# Test system: Mus musculus
# Assay: Toxicity against CD1 mouse assessed as limbic/striatal stereotypies at 10 mg/kg, po at 60 mins by Irwin test
# Type: organism-based
# Set-up: dose 10 mg/kg, route oral
# Conditions: in vivo, 1 h
row,SMILES,Activity
1,C#CCCCCCCCCCNC(=O)Oc1cccc(-n2ccc(C(N)=O)c2)c1,Toxic
2,NC(=O)c1ccn(-c2cccc(OC(=O)NCCCCCCc3ccccc3)c2)c1,Toxic

# Target: Voltage-gated inwardly rectifying potassium channel KCNH2 (Homo sapiens, UniProt Q12809)
# Sequence (Q12809 whole entry): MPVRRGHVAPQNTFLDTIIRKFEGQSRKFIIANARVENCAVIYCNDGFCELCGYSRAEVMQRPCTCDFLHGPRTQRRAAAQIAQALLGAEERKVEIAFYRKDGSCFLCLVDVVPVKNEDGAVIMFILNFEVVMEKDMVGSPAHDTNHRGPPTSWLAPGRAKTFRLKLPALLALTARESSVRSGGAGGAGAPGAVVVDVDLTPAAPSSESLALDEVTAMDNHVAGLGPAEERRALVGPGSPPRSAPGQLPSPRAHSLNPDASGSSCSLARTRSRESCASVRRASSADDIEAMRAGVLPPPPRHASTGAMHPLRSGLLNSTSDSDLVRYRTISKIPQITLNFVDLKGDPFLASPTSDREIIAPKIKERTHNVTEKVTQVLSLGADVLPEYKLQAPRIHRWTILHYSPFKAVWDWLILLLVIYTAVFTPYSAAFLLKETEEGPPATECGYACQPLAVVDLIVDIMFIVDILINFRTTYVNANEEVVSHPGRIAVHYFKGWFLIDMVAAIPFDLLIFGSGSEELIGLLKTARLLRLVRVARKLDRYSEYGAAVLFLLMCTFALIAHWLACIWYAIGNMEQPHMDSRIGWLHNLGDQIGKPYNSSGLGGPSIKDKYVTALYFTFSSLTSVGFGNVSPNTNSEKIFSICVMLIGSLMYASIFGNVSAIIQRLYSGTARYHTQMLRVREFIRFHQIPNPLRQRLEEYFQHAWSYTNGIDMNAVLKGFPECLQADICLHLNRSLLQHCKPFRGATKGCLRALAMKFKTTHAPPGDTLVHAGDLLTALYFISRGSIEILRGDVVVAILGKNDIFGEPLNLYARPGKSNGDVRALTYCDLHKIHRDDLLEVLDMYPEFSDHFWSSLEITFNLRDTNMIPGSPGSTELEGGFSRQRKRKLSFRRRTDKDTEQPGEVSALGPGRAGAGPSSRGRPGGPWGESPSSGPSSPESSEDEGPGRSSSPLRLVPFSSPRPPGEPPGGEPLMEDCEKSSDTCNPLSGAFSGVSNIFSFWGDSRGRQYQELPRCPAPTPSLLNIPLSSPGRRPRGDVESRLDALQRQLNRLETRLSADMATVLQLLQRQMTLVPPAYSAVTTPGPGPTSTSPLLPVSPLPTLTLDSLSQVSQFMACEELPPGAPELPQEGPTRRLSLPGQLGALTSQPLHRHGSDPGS
# Assay: Inhibition of human ERG expressed in CHOK1 cells for 5 mins by automated patch clamp assay
# Type: cell-based, CHO-K1
# Conditions: not given
row,SMILES,IC50 [nM]
1,Cc1cc(C(N)=O)c(-c2cccc(OC(=O)NCCCCCCc3ccccc3)c2)s1,> 10000
2,NC(=O)c1ccn(-c2cccc(OC(=O)NCCCCCCc3ccccc3)c2)c1,> 10000

# Target: T1, Monoglyceride lipase (Mus musculus) (UniProt O35678)
# T1 sequence (whole entry): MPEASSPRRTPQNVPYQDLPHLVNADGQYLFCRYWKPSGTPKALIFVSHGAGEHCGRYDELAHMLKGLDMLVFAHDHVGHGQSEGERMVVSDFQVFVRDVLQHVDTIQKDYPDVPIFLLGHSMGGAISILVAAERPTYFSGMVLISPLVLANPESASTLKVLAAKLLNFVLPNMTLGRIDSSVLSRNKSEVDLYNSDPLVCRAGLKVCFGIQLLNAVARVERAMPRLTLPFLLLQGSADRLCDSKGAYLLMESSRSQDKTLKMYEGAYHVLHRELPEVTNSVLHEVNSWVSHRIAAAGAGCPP
# Assay: Inhibition of MAGL-mediated 2AG hydrolysis in mouse brain homogenate using [3H]2OG as substrate incubated for 20 mins prior to substrate addition
# Type: tissue-based
# Conditions: not given
row,SMILES,inhibition
1,C#CCCCCCCCCCNC(=O)Oc1cccc(-n2ccc(C(N)=O)c2)c1,inactive
2,Cc1cc(C(N)=O)c(-c2cccc(OC(=O)NCCCCCCc3ccccc3)c2)s1,inactive
3,NC(=O)c1ccn(-c2cccc(OC(=O)NCCCCCCc3ccccc3)c2)c1,inactive

# Organism: Mus musculus
# Assay: Inhibition of DAGL-mediated 2AG synthesis in mouse brain homogenate using […] as substrate incubated for 20 mins prior to substrate addition
# Type: tissue-based
# Conditions: not given
row,SMILES,inhibition
1,C#CCCCCCCCCCNC(=O)Oc1cccc(-n2ccc(C(N)=O)c2)c1,inactive
2,Cc1cc(C(N)=O)c(-c2cccc(OC(=O)NCCCCCCc3ccccc3)c2)s1,inactive
3,NC(=O)c1ccn(-c2cccc(OC(=O)NCCCCCCc3ccccc3)c2)c1,inactive

# Target: T2, N-acyl-phosphatidylethanolamine-hydrolyzing phospholipase D (Mus musculus) (UniProt Q8BH82)
# T2 sequence (whole entry): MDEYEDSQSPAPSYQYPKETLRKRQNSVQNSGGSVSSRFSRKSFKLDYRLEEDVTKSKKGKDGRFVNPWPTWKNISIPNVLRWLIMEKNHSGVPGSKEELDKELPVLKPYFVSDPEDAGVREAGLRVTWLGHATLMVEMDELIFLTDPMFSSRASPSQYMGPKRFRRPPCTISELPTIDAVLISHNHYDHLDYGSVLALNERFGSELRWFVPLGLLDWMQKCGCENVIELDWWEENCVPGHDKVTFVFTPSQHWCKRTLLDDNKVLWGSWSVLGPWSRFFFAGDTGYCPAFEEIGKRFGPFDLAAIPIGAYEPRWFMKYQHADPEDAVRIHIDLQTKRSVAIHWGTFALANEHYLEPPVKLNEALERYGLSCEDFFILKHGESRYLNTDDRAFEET
# Assay: Inhibition of NAPE-PLD-meidated AEA synthesis in mouse brain homogenate using [3H]NArPE as substrate incubated for 20 mins prior to substrate addition
# Type: tissue-based
# Conditions: not given
row,SMILES,inhibition
1,C#CCCCCCCCCCNC(=O)Oc1cccc(-n2ccc(C(N)=O)c2)c1,inactive
2,Cc1cc(C(N)=O)c(-c2cccc(OC(=O)NCCCCCCc3ccccc3)c2)s1,inactive
3,NC(=O)c1ccn(-c2cccc(OC(=O)NCCCCCCc3ccccc3)c2)c1,inactive

# Target: Transient receptor potential cation channel subfamily V member 1 (Mus musculus) (UniProt Q704Y3)
# Sequence (Q704Y3 whole entry): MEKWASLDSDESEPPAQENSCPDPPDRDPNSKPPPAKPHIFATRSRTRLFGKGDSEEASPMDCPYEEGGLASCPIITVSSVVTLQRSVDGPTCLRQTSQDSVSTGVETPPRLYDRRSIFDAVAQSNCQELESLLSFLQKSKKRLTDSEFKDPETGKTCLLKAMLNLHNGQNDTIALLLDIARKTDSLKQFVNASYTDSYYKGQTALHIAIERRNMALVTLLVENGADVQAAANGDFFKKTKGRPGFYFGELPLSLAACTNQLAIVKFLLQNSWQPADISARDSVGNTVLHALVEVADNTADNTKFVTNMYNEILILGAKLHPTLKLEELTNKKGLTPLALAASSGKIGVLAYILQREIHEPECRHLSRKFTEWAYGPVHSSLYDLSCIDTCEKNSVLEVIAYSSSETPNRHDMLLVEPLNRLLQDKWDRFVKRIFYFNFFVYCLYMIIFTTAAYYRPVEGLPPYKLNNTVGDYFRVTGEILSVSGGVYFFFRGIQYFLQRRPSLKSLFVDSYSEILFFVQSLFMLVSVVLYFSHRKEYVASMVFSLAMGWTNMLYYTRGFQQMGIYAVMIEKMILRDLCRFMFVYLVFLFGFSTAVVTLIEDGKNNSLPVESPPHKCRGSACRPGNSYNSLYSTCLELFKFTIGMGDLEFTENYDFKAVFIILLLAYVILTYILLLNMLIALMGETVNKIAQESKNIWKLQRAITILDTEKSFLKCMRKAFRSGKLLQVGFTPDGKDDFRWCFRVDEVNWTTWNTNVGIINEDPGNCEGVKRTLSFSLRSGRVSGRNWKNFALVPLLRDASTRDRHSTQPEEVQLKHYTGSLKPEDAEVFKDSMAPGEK
# Assay: Displacement of [3H]RTX from TRPV1 receptor in mouse brain fraction
# Type: tissue-based
# Conditions: not given
row,SMILES,Activity
1,C#CCCCCCCCCCNC(=O)Oc1cccc(-n2ccc(C(N)=O)c2)c1,inactive
2,Cc1cc(C(N)=O)c(-c2cccc(OC(=O)NCCCCCCc3ccccc3)c2)s1,inactive
3,NC(=O)c1ccn(-c2cccc(OC(=O)NCCCCCCc3ccccc3)c2)c1,inactive

# Target: Cannabinoid receptor 2 (Mus musculus) (UniProt P47936)
# Sequence (P47936 whole entry): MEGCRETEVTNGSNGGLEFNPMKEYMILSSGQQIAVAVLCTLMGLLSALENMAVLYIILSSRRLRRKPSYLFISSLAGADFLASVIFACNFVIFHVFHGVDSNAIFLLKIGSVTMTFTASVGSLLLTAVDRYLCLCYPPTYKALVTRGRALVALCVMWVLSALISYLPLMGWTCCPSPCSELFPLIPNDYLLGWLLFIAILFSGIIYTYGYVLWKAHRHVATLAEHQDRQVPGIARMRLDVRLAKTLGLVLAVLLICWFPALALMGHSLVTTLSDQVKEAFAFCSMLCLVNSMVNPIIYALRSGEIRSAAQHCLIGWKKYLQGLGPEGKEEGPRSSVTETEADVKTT
# Assay: Displacement of [3H]CP55.940 from CB2 receptor in mouse spleen fraction
# Type: tissue-based
# Conditions: not given
row,SMILES,Activity
1,C#CCCCCCCCCCNC(=O)Oc1cccc(-n2ccc(C(N)=O)c2)c1,inactive
2,Cc1cc(C(N)=O)c(-c2cccc(OC(=O)NCCCCCCc3ccccc3)c2)s1,inactive
3,NC(=O)c1ccn(-c2cccc(OC(=O)NCCCCCCc3ccccc3)c2)c1,inactive

# Target: Cannabinoid receptor 1 (Mus musculus) (UniProt P47746)
# Sequence (P47746 whole entry): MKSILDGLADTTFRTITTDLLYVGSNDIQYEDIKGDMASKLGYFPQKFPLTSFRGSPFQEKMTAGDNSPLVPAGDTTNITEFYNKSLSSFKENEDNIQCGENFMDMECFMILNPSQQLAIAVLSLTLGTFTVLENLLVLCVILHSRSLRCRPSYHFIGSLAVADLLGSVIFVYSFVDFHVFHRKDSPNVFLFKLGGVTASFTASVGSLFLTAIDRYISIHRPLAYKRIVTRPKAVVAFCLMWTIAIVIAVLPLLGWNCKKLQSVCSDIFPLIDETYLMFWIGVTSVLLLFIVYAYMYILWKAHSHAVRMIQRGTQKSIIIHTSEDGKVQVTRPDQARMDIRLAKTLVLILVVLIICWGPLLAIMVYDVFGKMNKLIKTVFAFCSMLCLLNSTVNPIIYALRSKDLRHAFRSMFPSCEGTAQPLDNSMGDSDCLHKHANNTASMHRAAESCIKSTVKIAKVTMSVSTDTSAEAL
# Assay: Displacement of [3H]CP55.940 from CB1 receptor in mouse brain fraction
# Type: tissue-based
# Conditions: not given
row,SMILES,Activity
1,C#CCCCCCCCCCNC(=O)Oc1cccc(-n2ccc(C(N)=O)c2)c1,inactive
2,Cc1cc(C(N)=O)c(-c2cccc(OC(=O)NCCCCCCc3ccccc3)c2)s1,inactive
3,NC(=O)c1ccn(-c2cccc(OC(=O)NCCCCCCc3ccccc3)c2)c1,inactive

# Target: T3, Fatty-acid amide hydrolase 1 (Mus musculus) (UniProt O08914)
# T3 sequence (whole entry): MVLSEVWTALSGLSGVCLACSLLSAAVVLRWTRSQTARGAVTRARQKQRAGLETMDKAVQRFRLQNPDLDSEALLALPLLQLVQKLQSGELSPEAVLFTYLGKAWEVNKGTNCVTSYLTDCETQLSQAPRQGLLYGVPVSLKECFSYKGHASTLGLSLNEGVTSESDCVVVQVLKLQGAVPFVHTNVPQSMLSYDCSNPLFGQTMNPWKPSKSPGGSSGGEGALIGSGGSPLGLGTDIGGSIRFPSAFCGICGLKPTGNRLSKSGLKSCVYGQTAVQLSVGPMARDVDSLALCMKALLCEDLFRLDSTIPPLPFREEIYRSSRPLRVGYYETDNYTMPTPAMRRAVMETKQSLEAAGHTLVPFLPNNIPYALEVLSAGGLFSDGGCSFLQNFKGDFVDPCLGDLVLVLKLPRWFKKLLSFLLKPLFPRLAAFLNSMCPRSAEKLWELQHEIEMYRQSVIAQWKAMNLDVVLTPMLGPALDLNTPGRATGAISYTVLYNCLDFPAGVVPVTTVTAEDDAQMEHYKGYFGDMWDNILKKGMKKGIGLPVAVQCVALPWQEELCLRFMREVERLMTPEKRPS
# Assay: Non-competitive inhibition of mouse FAAH isolated from brain homogenate using [3H-ethanolamine]AEA as substrate by Lineweaver-Burk plot analysis
# Conditions: not given
row,SMILES,inhibition
1,Cc1cc(C(N)=O)c(-c2cccc(OC(=O)NCCCCCCc3ccccc3)c2)s1,Active
2,NC(=O)c1ccn(-c2cccc(OC(=O)NCCCCCCc3ccccc3)c2)c1,Active

# Target: T3, Fatty-acid amide hydrolase 1 (Mus musculus)
# Assay: Reversible inhibition of mouse FAAH isolated from brain homogenate using [3H-ethanolamine]AEA as substrate incubated for 20 mins prior to substrate addition measured after 18 hrs by […] method
# Conditions: not given
row,SMILES,inhibition
1,NC(=O)c1ccn(-c2cccc(OC(=O)NCCOCCOc3ccc(F)cc3)c2)c1,Active
2,O=C(CCCCCCc1ccccc1)c1ncc(-c2ccccn2)o1,Active
3,NC(=O)c1ccn(-c2cccc(OC(=O)NCCOCCOc3ccc(F)cc3F)c2)c1,Active
4,Cc1cc(C(N)=O)c(-c2cccc(OC(=O)NCCCCCCc3ccccc3)c2)s1,Active
5,NC(=O)c1ccn(-c2cccc(OC(=O)NCCCCCCc3ccccc3)c2)c1,Active

# Target: T4, Fatty-acid amide hydrolase 1 (Mus musculus, UniProt O08914)
# T4 sequence (O08914 whole entry): T3 sequence (whole entry)
# Assay: Inhibition of mouse FAAH isolated from brain homogenate using [3H-ethanolamine]AEA as substrate incubated for 20 mins prior to substrate addition measured after 15 mins by beta counting analysis
# Conditions: not given
SMILES,IC50 [nM],Ki [nM]
NC(=O)c1ccn(-c2cccc(OC(=O)NCCOCCOc3ccc(F)cc3)c2)c1,31,8
C#CCCCCCCCCCNC(=O)Oc1cccc(-n2ccc(C(N)=O)c2)c1,0.67,0.18
NC(=O)c1ccn(-c2cccc(OC(=O)NCCOCCOc3ccc(F)cc3F)c2)c1,28,7
Cc1cc(C(N)=O)c(-c2cccc(OC(=O)NCCCCCCc3ccccc3)c2)s1,1.9,0.5
NC(=O)c1ccn(-c2cccc(OC(=O)NCCCCCCc3ccccc3)c2)c1,0.6,0.16
